Test results reported in patent publication US11427548B2 (Arvinas Operations, Inc., priority 2015, dated 2022).
Like-named read-outs stand apart in the source and are kept apart here.

Tests used:
Androgen Receptor [1] = biological target: T1, Androgen Receptor (Homo sapiens, UniProt P10275+P40337, T878A); experiment: Androgen Receptor ELISA assay (PathScan AR ELISA) in LNCaP cells: AR degradation, Dmax and DC50; assay type: cell-based; conditions: for DC50: concentration that caused 50% Androgen Receptor degradation; for Dmax: highest percentage of Androgen Receptor degradation
T1 construct: Compounds have been evaluated in this assay in LNCaP and/or VCaP cells utilizing similar protocols; endogenous in cells; host or cells: LNCaP cells
T1 sequence (P10275 whole entry T878A): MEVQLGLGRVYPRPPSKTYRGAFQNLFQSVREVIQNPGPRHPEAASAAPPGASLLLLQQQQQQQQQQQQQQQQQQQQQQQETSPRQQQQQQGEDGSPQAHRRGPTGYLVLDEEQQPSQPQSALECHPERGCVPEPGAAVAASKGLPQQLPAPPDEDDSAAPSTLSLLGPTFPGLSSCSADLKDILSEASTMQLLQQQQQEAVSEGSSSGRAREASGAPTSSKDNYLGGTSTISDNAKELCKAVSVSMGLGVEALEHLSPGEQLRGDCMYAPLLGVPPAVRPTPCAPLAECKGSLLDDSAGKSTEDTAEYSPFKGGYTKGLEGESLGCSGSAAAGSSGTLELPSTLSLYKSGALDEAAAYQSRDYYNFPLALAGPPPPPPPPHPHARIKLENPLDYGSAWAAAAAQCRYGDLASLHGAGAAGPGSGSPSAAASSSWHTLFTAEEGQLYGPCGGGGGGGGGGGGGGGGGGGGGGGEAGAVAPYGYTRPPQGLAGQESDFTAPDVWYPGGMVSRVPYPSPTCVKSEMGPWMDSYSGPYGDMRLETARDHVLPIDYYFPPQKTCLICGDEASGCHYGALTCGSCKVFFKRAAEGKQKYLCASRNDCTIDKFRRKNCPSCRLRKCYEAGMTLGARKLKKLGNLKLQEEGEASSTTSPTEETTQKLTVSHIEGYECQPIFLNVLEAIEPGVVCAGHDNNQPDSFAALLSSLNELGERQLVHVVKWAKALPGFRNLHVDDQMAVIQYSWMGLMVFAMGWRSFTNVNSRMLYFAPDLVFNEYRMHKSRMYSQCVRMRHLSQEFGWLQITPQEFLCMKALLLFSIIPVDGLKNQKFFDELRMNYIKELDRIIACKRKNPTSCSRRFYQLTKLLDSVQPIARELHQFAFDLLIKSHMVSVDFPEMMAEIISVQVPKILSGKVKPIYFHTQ
T1 sequence (P40337 whole entry): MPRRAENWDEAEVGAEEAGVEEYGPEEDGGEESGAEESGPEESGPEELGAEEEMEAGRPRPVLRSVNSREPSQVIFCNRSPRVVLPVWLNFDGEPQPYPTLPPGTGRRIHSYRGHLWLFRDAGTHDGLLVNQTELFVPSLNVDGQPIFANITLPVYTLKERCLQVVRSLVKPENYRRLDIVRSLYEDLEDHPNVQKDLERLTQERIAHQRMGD
T1 sequence (Q15369 whole entry partner): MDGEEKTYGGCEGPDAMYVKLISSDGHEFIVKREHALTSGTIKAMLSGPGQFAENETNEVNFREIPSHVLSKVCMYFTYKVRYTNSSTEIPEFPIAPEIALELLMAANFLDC
T1 sequence (Q15370 whole entry partner): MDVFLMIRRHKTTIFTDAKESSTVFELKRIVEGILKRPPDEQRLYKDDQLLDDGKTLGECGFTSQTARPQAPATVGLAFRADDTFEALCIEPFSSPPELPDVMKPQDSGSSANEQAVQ

Androgen Receptor [2] = biological target: T2, Androgen Receptor (Homo sapiens, UniProt P10275); experiment: Androgen Receptor ELISA assay (PathScan AR ELISA) in VCaP cells: AR degradation, Dmax and DC50; assay type: cell-based
T2 construct: endogenous in cells; host or cells: VCaP cells
T2 sequence (P10275 1-920): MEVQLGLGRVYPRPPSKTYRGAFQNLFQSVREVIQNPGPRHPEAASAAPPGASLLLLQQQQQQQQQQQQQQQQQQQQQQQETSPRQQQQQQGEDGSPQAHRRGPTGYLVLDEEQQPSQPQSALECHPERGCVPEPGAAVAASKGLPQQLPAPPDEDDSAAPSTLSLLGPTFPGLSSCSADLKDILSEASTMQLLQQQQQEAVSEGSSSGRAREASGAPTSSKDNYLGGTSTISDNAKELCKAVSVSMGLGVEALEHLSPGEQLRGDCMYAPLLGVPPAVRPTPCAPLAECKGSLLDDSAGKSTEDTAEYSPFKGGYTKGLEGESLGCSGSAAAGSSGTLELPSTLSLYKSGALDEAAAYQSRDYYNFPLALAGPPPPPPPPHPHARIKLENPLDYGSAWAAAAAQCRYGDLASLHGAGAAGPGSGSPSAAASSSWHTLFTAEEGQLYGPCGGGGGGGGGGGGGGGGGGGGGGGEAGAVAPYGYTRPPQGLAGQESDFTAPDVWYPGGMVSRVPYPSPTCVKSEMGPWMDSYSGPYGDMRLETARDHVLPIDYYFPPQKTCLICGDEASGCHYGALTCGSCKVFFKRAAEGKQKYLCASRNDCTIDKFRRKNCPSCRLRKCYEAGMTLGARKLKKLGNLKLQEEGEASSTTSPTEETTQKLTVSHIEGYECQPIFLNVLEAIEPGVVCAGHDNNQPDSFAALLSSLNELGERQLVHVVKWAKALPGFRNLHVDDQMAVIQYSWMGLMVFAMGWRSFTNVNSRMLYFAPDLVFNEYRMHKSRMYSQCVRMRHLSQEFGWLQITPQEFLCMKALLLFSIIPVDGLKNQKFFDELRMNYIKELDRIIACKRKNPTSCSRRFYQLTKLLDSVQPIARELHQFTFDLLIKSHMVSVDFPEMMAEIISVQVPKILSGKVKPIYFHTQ
Summary of the method: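 VCaP cells in phenol red-free RPMI with 5% charcoal-stripped FBS were grown at least 3 days, then given compound as 7 half-log doses in 0.1% DMSO with 0.1 nM R1881 for 24 h. Lysates went into a sandwich AR ELISA with TMB read at 450 nm.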

Row | SMILES | DC50 (Androgen Receptor [1]) | Dmax (Androgen Receptor [1]) | other results
1 | CC(=O)NCC(=O)N1C[C@H](O)C[C@H]1C(=O)NCc1ccc(-c2scnc2C)cc1OCCOCCOCCOc1ccc(N2C(=S)N(c3ccc(C#N)c(C(F)(F)F)c3)C(=O)C2(C)C)cc1 [Example 271] | > 501 nM | 26 to 50% | 
2 | Cc1ncsc1-c1ccc(CNC(=O)[C@@H]2C[C@@H](O)CN2C(=O)[C@H](C(C)C)N2Cc3ccccc3C2=O)c(OCCCOc2ccc(N3C(=S)N(c4ccc(C#N)c(C(F)(F)F)c4)C(=O)C3(C)C)cc2)c1 [Example 254] | 51 to 500 nM | 51 to 70% | 
3 | Cc1ncsc1-c1ccc(CNC(=O)[C@@H]2C[C@@H](O)CN2C(=O)[C@@H](NC(=O)C(C)(C)C)C(C)(C)C)c(OCCOCCOCCOc2ccc(N3C(=S)N(c4ccc(C#N)c(C(F)(F)F)c4)C(=O)C3(C)C)cc2)c1 [Example 270] | 51 to 500 nM | 51 to 70% | 
4 | Cc1ncsc1-c1ccc(CNC(=O)[C@@H]2C[C@@H](O)CN2C(=O)[C@H](C(C)C)N2Cc3ccccc3C2=O)c(OCCOCCOCCCOCCOCCOc2ccc(N3C(=S)N(c4ccc(C#N)c(C(F)(F)F)c4)C(=O)C3(C)C)cc2)c1 [Example 214] | 51 to 500 nM | 51 to 70% | 
5 | Cc1ncsc1-c1ccc(CNC(=O)[C@@H]2C[C@@H](O)CN2C(=O)[C@@H](NC(=O)CCNC(=O)CCCc2ccc(N3C(=S)N(c4ccc(C#N)c(C(F)(F)F)c4)C(=O)C3(C)C)cc2)C(C)(C)C)cc1 [Example 231] | > 501 nM | 51 to 70% | 
6 | Cc1ncsc1-c1ccc(CNC(=O)[C@@H]2C[C@@H](O)CN2C(=O)[C@H](C(C)C)N2Cc3ccccc3C2=O)c(OCCOCCOCCOCCOCCOc2ccc(N3C(=S)N(c4ccc(C#N)c(C(F)(F)F)c4)C(=O)C3(C)C)cc2)c1 [Example 211] | 51 to 500 nM | 26 to 50% | 
7 | CC(=O)N[C@@H](C)C(=O)N1C[C@H](O)C[C@H]1C(=O)NCc1ccc(-c2scnc2C)cc1OCCOCCOCCOc1ccc(N2C(=S)N(c3ccc(C#N)c(C(F)(F)F)c3)C(=O)C2(C)C)cc1 [Example 272] | > 501 nM | < 25% | 
8 | Cc1ncsc1-c1ccc(CNC(=O)[C@@H]2C[C@@H](O)CN2C(=O)[C@@H](NC(=O)COCCOCCCCOCCCCOCCOCCOc2ccc(N3C(=S)N(c4ccc(C#N)c(C(F)(F)F)c4)C(=O)C3(C)C)cc2)C(C)(C)C)cc1 [Example 223] |  | 26 to 50% | 
9 | Cc1ncsc1-c1ccc(CNC(=O)[C@@H]2C[C@@H](O)CN2C(=O)[C@@H](NC(=O)c2ccc(OCCCCOc3ccc(-c4ccc(N5C(=S)N(c6ccc(C#N)c(C(F)(F)F)c6)C(=O)C5(C)C)cc4)cc3)cc2)C(C)(C)C)cc1 [Example 285] | > 501 nM | < 25% | 
10 | Cc1ncsc1-c1ccc(CNC(=O)[C@@H]2C[C@@H](O)CN2C(=O)[C@H](C(C)C)N2Cc3ccccc3C2=O)c(OCCOCCOCCOCCOc2ccc(N3C(=S)N(c4ccc(C#N)c(C(F)(F)F)c4)C(=O)C3(C)C)cc2)c1 [Example 210] | > 501 nM | 26 to 50% | 
11 | Cc1ncsc1-c1ccc(CNC(=O)[C@@H]2C[C@@H](O)CN2C(=O)[C@@H](NC(=O)COCCOCCOCCCCOCCOCCOc2ccc(N3C(=S)N(c4ccc(C#N)c(C(F)(F)F)c4)C(=O)C3(C)C)cc2)C(C)(C)C)cc1 [Example 217] | < 50 nM | 51 to 70% | 
12 | Cc1ncsc1-c1ccc(CNC(=O)[C@@H]2C[C@@H](O)CN2C(=O)[C@@H](NC(=O)c2ccc(OCCCCOc3ccc(N4C(=S)N(c5ccc(C#N)c(C(F)(F)F)c5)C(=O)C4(C)C)cc3)cc2)C(C)(C)C)cc1 [Example 257] | 51 to 500 nM | 26 to 50% | 
13 | Cc1ncsc1-c1ccc(CNC(=O)[C@@H]2C[C@@H](O)CN2C(=O)[C@@H](NC(=O)C(C)C)C(C)(C)C)c(OCCOCCOCCOc2ccc(N3C(=S)N(c4ccc(C#N)c(C(F)(F)F)c4)C(=O)C3(C)C)cc2)c1 [Example 269] | > 501 nM | 51 to 70% | 
14 | Cc1ncsc1-c1ccc(CNC(=O)[C@@H]2C[C@@H](O)CN2C(=O)[C@@H](NC(=O)CCOCCCOc2ccc(N3C(=S)N(c4ccc(C#N)c(C(F)(F)F)c4)C(=O)C3(C)C)cc2)C(C)(C)C)cc1 [Example 244] | 51 to 500 nM | < 25% | 
15 | CC(=O)N[C@H](C(=O)N1C[C@H](O)C[C@H]1C(=O)NCc1ccc(-c2scnc2C)cc1OCCOCCOCCOc1ccc(N2C(=S)N(c3ccc(C#N)c(C(F)(F)F)c3)C(=O)C2(C)C)cc1)C(C)(C)C [Example 266] | 51 to 500 nM | 51 to 70% | 
16 | Cc1ncsc1-c1ccc(CNC(=O)[C@@H]2C[C@@H](O)CN2C(=O)[C@H](C(C)C)N2Cc3cc(CCCCCOc4ccc(N5C(=S)N(c6ccc(C#N)c(C(F)(F)F)c6)C(=O)C5(C)C)cc4)ccc3C2=O)cc1 [Example 251] | 51 to 500 nM | 51 to 70% | 
17 | Cc1ncsc1-c1ccc(CNC(=O)[C@@H]2C[C@@H](O)CN2C(=O)[C@@H](NC(=O)COCCOCCOCCOCCOCCOCCOc2ccc(N3C(=S)N(c4ccc(C#N)c(C(F)(F)F)c4)C(=O)C3(C)C)cc2)C(C)(C)C)cc1 [Example 212] | > 501 nM | > 71% | 
18 | Cc1ncsc1-c1ccc(CNC(=O)[C@@H]2C[C@@H](O)CN2C(=O)[C@H](C(C)C)N2Cc3ccccc3C2=O)c(OCCOCCOCCCCOCCOCCOc2ccc(N3C(=S)N(c4ccc(C#N)c(C(F)(F)F)c4)C(=O)C3(C)C)cc2)c1 [Example 215] | 51 to 500 nM | 26 to 50% | 
19 | Cc1ncsc1-c1ccc(CNC(=O)[C@@H]2C[C@@H](O)CN2C(=O)[C@@H](NC(=O)COCCOCCCCCOCCCCCOCCOCCOc2ccc(N3C(=S)N(c4ccc(C#N)c(C(F)(F)F)c4)C(=O)C3(C)C)cc2)C(C)(C)C)cc1 [Example 224] |  | 26 to 50% | 
20 | CC(C)(C)[C@H](NC(=O)COCCCCOc1ccc(-c2ccc(N3C(=S)N(c4ccc(C#N)c(C(F)(F)F)c4)C(=O)C3(C)C)cc2)cc1)C(=O)N1C[C@H](O)C[C@H]1C(=O)NCc1ccc(-c2ccn[nH]2)cc1 [Example 122, (2S,4R)-1-[(2S)-2-(2-{4-[4-(4-{3-[4-cyano-3-(trifluoromethyl)phenyl]-5,5-dimethyl-4-oxo-2-sulfanylideneimidazolidin-1-yl}phenyl)phenoxy]butoxy}acetamido)-3,3-dimethylbutanoyl]-4-hydroxy-N-{[4-(1H-pyrazol-5-yl)phenyl]methyl}pyrrolidine-2-carboxamide] |  |  | Dmax (Androgen Receptor [2]; VCaP, read-out: VCaP Dmax (%)): > 71%; DC50 (Androgen Receptor [2]; read-out: VCaP DC50; concentration that caused 50% Androgen Receptor degradation, VCaP cells (Table 32)): < 50 nM
21 | Cc1ncsc1-c1ccc(CNC(=O)[C@@H]2C[C@@H](O)CN2C(=O)[C@H](C(C)C)N2Cc3ccccc3C2=O)c(OCCN2CCN(c3ccc(C(=O)N[C@H]4C(C)(C)[C@H](Oc5ccc(C#N)c(Cl)c5)C4(C)C)cn3)CC2)c1 [Example 732, N-((1r,3r)-3-(3-chloro-4-cyanophenoxy)-2,2,4,4-tetramethylcyclobutyl)-6-(4-(2-(2-(((2S,4R)-4-hydroxy-1-((S)-3-methyl-2-(1-oxoisoindolin-2-yl)butanoyl)pyrrolidine-2-carboxamido)methyl)-5-(4-methylthiazol-5-yl)phenoxy)ethyl)piper-azin-1-yl)nicotinamide] |  |  | DC50 (Androgen Receptor [2]; VCaP cells; Table 36; read-out: VCaP DC50): < 50 nM; Dmax (Androgen Receptor [2]; VCaP, VCaP cells; Table 36; read-out: VCaP Dmax (%)): > 71%
22 | Cc1ncsc1-c1ccc(CNC(=O)[C@@H]2C[C@@H](O)CN2C(=O)[C@@H](NC(=O)COCCOc2ccc(Oc3ccc(C(=O)N[C@H]4C(C)(C)[C@H](Oc5ccc(C#N)c(Cl)c5)C4(C)C)cc3)cc2)C(C)(C)C)cc1 [Example 185, (2S,4R)-1-[(2S)-3,3-dimethyl-2-(2-{2-[4-(4-{[trans-3-(3-chloro-4-cyanophenoxy)-2,2,4,4-tetramethylcyclobutyl]carbamoyl}phenoxy)phenoxy]ethoxy}acetamido)butanoyl]-4-hydroxy-N-{[4-(4-methyl-1,3-thiazol-5-yl)phenyl]methyl}pyrrolidine-2-carboxamide] |  |  | Dmax (Androgen Receptor [2]; VCaP, highest percentage of Androgen Receptor degradation observed, VCaP cells (Table 32); read-out: VCaP Dmax (%)): > 71%; DC50 (Androgen Receptor [2]; concentration that caused 50% Androgen Receptor degradation, VCaP cells (Table 32); read-out: VCaP DC50): < 50 nM
